From US20170306409A1, “CANCER PATIENT SELECTION FOR ADMINISTRATION OF WNT SIGNALING INHIBITORS USING RNF43 MUTATION STATUS” (NOVARTIS AG, priority 2012, published 2017)

Tests used:
Assay type in all cases: cell-based, human
RNF43 mutant cells = experiment: foci formation assay with recombinant Wnt3a; conditions: 1 μM of LGK974 together with recombinant Wnt3a
Text: We next characterized Wnt-dependency in pancreatic cancer cell lines.

[1] = tested on: AXIN2, pancreatic cancer cell lines; experiment: AXIN2 expression across pancreatic cancer cell line panel; conditions: 22 of 29 cell lines
Description: (§1) For reverse transcription and quantitative PCR (qPCR), total RNA was extracted from cells or tumors using the RNeasy Plus Mini Kit (Qiagen). 1 μg of RNA were reverse transcribed with Taqman Reverse Transcription Reagents (Applied Biosystems) according to the manufacturer's instruction. Quantitative PCR was performed in 12 μl reactions consisting of 0.6 μl of 20× Taqman probe and PCR primer mix, 6 μl 2× Taqman FAST Advanced Master Mix (Applied Biosystems), and 5.4 μl diluted cDNA template. The thermocycling conditions utilized were 20 seconds at 95° C., followed by 40 cycles of 1 second at 95° C. and 20 seconds at 60° C. All experiments were performed in quadruplicates. Gene expression analysis was performed using the comparative ΔΔCT method and normalized with the housekeeping gene GUSB or 18S. The Taqman probes were purchased from Applied Biosystems.

PK1 = experiment: cell colony formation assay (FIG. 1); conditions: PK1 (RNF43 wild-type); 1 μM LGK974; 10 day assay
Description: (§2) FIG. 1(a) is a photograph showing a HPAFII cell colony formation assay in the presence of LGK974 at two concentrations (300 nM and 1 μM). 1300 cells were seeded into media with indicated treatment and the media were replaced every 5 days until crystal violet staining at day 14. […] FIG. 1(b) is a photograph showing PK1 (having a functional RNF43 protein) and HPAFII (having a nonfunctional RNF43 protein) cell colony formation assays in the presence of 1 μM LGK974 alone or together with daily addition of 10% Wnt3a conditioned media (CM).

HPAFII cells = experiment: cell colony formation assay (FIG. 1)
Description: as §2

Axin2, Capan-1 = experiment: Axin2 qPCR assay (pathway inhibition)
Description: as §1

Axin2, PANC-1 = experiment: Axin2 qPCR assay (pathway inhibition)
Description: as §1

Axin2, SUIT-2 = experiment: Axin2 qPCR assay (pathway inhibition)
Description: as §1

Axin2, L3.3 = experiment: Axin2 qPCR assay (pathway inhibition)
Description: as §1

Axin2, MIA CaPa-2 = experiment: Axin2 qPCR assay (pathway inhibition)
Description: as §1

Axin2, KP3 = experiment: Axin2 qPCR assay (pathway inhibition)
Description: as §1

Axin2, KP1-N = experiment: Axin2 qPCR assay (pathway inhibition)
Description: as §1

Axin2, PK59 = experiment: Axin2 qPCR assay (pathway inhibition)
Description: as §1

Axin2, KP4 = experiment: Axin2 qPCR assay (pathway inhibition)
Description: as §1

Axin2, Panc10.05 = experiment: Axin2 qPCR assay (pathway inhibition)
Description: as §1

Axin2, HuPT4 = experiment: Axin2 qPCR assay (pathway inhibition)
Description: as §1

Axin2, HuPT3 = experiment: Axin2 qPCR assay (pathway inhibition)
Description: as §1

Axin2, PaTu-8988S = experiment: Axin2 qPCR assay (pathway inhibition)
Description: as §1

Axin2, Capan-2 = experiment: Axin2 qPCR assay (pathway inhibition)
Description: as §1

Axin2, SU86.86 = experiment: Axin2 qPCR assay (pathway inhibition)
Description: as §1

Axin2, PK1 = experiment: Axin2 qPCR assay (pathway inhibition)
Description: as §1

Axin2, PL45 = experiment: Axin2 qPCR assay (pathway inhibition)
Description: as §1

Axin2, Panc05.04 = experiment: Axin2 qPCR assay (pathway inhibition)
Description: as §1

Axin2, QGP-1 = experiment: Axin2 qPCR assay (pathway inhibition)
Description: as §1

Axin2, PaTu-8988T = experiment: Axin2 qPCR assay (pathway inhibition)
Description: as §1

Axin2, CFPAC-1 = experiment: Axin2 qPCR assay (pathway inhibition)
Description: as §1

Axin2, Panc03.27 = experiment: Axin2 qPCR assay (pathway inhibition)
Description: as §1

Axin2, PSN-1 = experiment: Axin2 qPCR assay (pathway inhibition)
Description: as §1

Axin2, KP2 = experiment: Axin2 qPCR assay (pathway inhibition)
Description: as §1

Axin2, Panc04.03 = experiment: Axin2 qPCR assay (pathway inhibition)
Description: as §1

Axin2, KP-1NL = experiment: Axin2 qPCR assay (pathway inhibition)
Description: as §1

Axin2, PK45H = experiment: Axin2 qPCR assay (pathway inhibition)
Description: as §1

Axin2, PaTu-8902 = experiment: Axin2 qPCR assay (pathway inhibition)
Description: as §1

Axin2, SW1990 = experiment: Axin2 qPCR assay (pathway inhibition)
Description: as §1

Axin2, HPAFII = experiment: Axin2 qPCR assay (pathway inhibition)
Description: as §1

Axin2, DanG = experiment: Axin2 qPCR assay (pathway inhibition)
Description: as §1

Axin2, T3M4 = experiment: Axin2 qPCR assay (pathway inhibition)
Description: as §1

Axin2, BxPC3 = experiment: Axin2 qPCR assay (pathway inhibition)
Description: as §1

With Cc1cc(-c2ncc(CC(=O)Nc3ccc(-c4cnccn4)cn3)cc2C)ccn1 [LGK974, 2-[5-methyl-6-(2-methylpyridin-4-yl)pyridin-3-yl]-N-[5-(pyrazin-2-yl)pyridin-2-yl]acetamide] the “growth inhibitory effect with exogenous Wnt3a” value (RNF43 mutant cells) was “rescued”, the “share of pancreatic cancer cell lines with decreased expression of AXIN2” value [1] was 76% and the colony formation (PK1) was “no sensitivity”. For the same molecule, the colony formation (HPAFII cells; HPAFII (RNF43 mutant), 1 μM LGK974 alone) was “inhibited”, the colony formation (HPAFII cells; HPAFII, 300 nM and 1 μM LGK974, crystal violet staining at day 14) was “inhibits colony formation” and the “colony formation, inhibition with exogenous Wnt3a” value (HPAFII cells; HPAFII, 1 μM LGK974 with daily addition of 10% Wnt3a conditioned media) was “partially rescued”. For the same molecule, the “Pathway inhibition in Axin2 qPCR assay” value (Axin2, Capan-1) was “No”, the “Pathway inhibition in Axin2 qPCR assay” value (Axin2, PANC-1) was “Yes” and the “Pathway inhibition in Axin2 qPCR assay” value (Axin2, SUIT-2) was “Yes”. The “Pathway inhibition in Axin2 qPCR assay” value (Axin2, L3.3) was “No”, the “Pathway inhibition in Axin2 qPCR assay” value (Axin2, MIA CaPa-2) was “No” and the “Pathway inhibition in Axin2 qPCR assay” value (Axin2, KP3) was “Yes”. The “Pathway inhibition in Axin2 qPCR assay” value (Axin2, KP1-N) was “Yes”, the “Pathway inhibition in Axin2 qPCR assay” value (Axin2, PK59) was “Yes” and the “Pathway inhibition in Axin2 qPCR assay” value (Axin2, KP4) was “No”. The “Pathway inhibition in Axin2 qPCR assay” value (Axin2, Panc10.05) was “Yes”, the “Pathway inhibition in Axin2 qPCR assay” value (Axin2, HuPT4) was “No” and the “Pathway inhibition in Axin2 qPCR assay” value (Axin2, HuPT3) was “Yes”. For the same molecule, the “Pathway inhibition in Axin2 qPCR assay” value (Axin2, PaTu-8988S) was “Yes”, the “Pathway inhibition in Axin2 qPCR assay” value (Axin2, Capan-2) was “Yes” and the “Pathway inhibition in Axin2 qPCR assay” value (Axin2, SU86.86) was “Yes”. For the same molecule, the “Pathway inhibition in Axin2 qPCR assay” value (Axin2, PK1) was “Yes”, the “Pathway inhibition in Axin2 qPCR assay” value (Axin2, PL45) was “No” and the “Pathway inhibition in Axin2 qPCR assay” value (Axin2, Panc05.04) was “Yes”. For the same molecule, the “Pathway inhibition in Axin2 qPCR assay” value (Axin2, QGP-1) was “No”, the “Pathway inhibition in Axin2 qPCR assay” value (Axin2, PaTu-8988T) was “Yes” and the “Pathway inhibition in Axin2 qPCR assay” value (Axin2, CFPAC-1) was “No”. The “Pathway inhibition in Axin2 qPCR assay” value (Axin2, Panc03.27) was “Yes”, the “Pathway inhibition in Axin2 qPCR assay” value (Axin2, PSN-1) was “Yes” and the “Pathway inhibition in Axin2 qPCR assay” value (Axin2, KP2) was “Yes”. The “Pathway inhibition in Axin2 qPCR assay” value (Axin2, Panc04.03) was “No”, the “Pathway inhibition in Axin2 qPCR assay” value (Axin2, KP-1NL) was “Yes” and the “Pathway inhibition in Axin2 qPCR assay” value (Axin2, PK45H) was “No”. For the same molecule, the “Pathway inhibition in Axin2 qPCR assay” value (Axin2, PaTu-8902) was “Yes”, the “Pathway inhibition in Axin2 qPCR assay” value (Axin2, SW1990) was “Yes” and the “Pathway inhibition in Axin2 qPCR assay” value (Axin2, HPAFII) was “Yes”. The “Pathway inhibition in Axin2 qPCR assay” value (Axin2, DanG) was “No”, the “Pathway inhibition in Axin2 qPCR assay” value (Axin2, T3M4) was “No” and the “Pathway inhibition in Axin2 qPCR assay” value (Axin2, BxPC3) was “Yes”.
